Results from patent publication US7943628B2, “Pyrimidine derivatives” (Pfizer Limited, priority 2005, dated 2011).

The compounds below were run against T1, histamine H4 receptor (Homo sapiens, UniProt Q9H3N8) (assay: H4 binding, method 2 ([3H]-histamine binding with Ysi WGA beads on CHO cell membranes)). Conditions: H4 binding, method 2; Ki calculated from IC50 (Cheng-Prussoff); read-out: Method 2 (Ki (nM)).
T1 construct: expressed in transfected cells; host or cells: CHO cells
Protocol: Cell pellets from CHO cells expressing the histamine H4 receptor were homogenised in ice-cold 50 mM Tris-HCl/0.5 mM CaCl2 buffer containing a protease inhibitor cocktail (Roche®, United Kingdom) using a ground glass homogeniser. Homogenates were centrifuged at 48000 g for 30 min at 4° C. The membrane pellet was resuspended in fresh buffer and the centrifugation step was repeated as described above. The membrane pellet was resuspended in 50 mM Tris-HCl in the same volume as the original cell pellet. Aliquots of membrane preparations were stored at −80° C. and were used for [^3H]-Histamine binding experiments.
Cell membranes (15 μg/well) were pre-incubated for 120 min shaking at 4° C. with Ysi WGA beads (250 μg/well) in 50 mM Tris-HCl (pH 7.4) followed by centrifugation at 1500 rpm for 5 minutes and resuspension in 50 mM Tris-HCl (pH 7.4). The membrane/bead mixture (15 μg membrane/250 μg beads well) was incubated for 90 minutes shaking at room temperature with 6.5 nM [2,5-^3H] Histamine dihydrochloride (30-60 Ci/mmol) in 50 mM Tris-HCl (pH 7.4), with or without competing H4 ligands. Non-specific binding was defined with 10 μM JNJ7777120. Bound radiolabel was determined using scintillation counting techniques after 90 minutes.

| Ki [nM] | Compound |
| --- | --- |
| 3.66 | CNC1CN(c2cc(NCc3ccccc3F)nc(N)n2)C1 [Example 78, N^4-(2-Fluorobenzyl)-6-[3-(methylamino)azetidin-1-yl]pyrimidine-2,4-diamine] |
| 256 | CNC1CN(c2cc(NCc3ccc(F)cc3)ncn2)C1 [Example 47, N-(4-Fluorobenzyl)-6-[3-(methylamino)azetidin-1-yl]pyrimidin-4-amine] |
| 17.4 | CNC1CN(c2cc(NCc3ccccc3OC)nc(N)n2)C1 [Example 87, N^4-(2-Methoxybenzyl)-6-[3-(methylamino)azetidin-1-yl]pyrimidine-2,4-diamine] |
| 125 | CNC1CN(c2cc(NCc3ccc(OC(F)(F)F)cc3)nc(N)n2)C1 [Example 76, 6-[3-(Methylamino)azetidin-1-yl]-N^4-[4-(trifluoromethoxy)benzyl]pyrimidine-2,4-diamine] |
| 611 | CC(C)(C)CNc1cc(N2C[C@@H]3[C@@H](N)[C@@H]3C2)nc(N)n1 [Example 126, 6-[(1R*,5S*,6s*)-6-Amino-3-azabicyclo[3.1.0]hex-3-yl]-N^4-(2,2-dimethylpropyl)pyrimidine-2,4-diamine] |
| 256 | C[C@@H]1CN(c2cc(NCCC(C)(C)C)nc(N)n2)CCN1 [Example 93, N^4-(3,3-Dimethylbutyl)-6-[(3R)-3-methylpiperazin-1-yl]pyrimidine-2,4-diamine] |
| 12.1 | CNC1CN(c2cc(NCc3ccc(Cl)cc3)nc(N)n2)C1 [Example 81, N^4-(4-Chlorobenzyl)-6-[3-(methylamino)azetidin-1-yl]pyrimidine-2,4-diamine] |
| 49.7 | CCNc1cc(N2CC(NC)C2)ncn1 [Example 48, N-Ethyl-6-[3-(methylamino)azetidin-1-yl]pyrimidin-4-amine] |
| 414 | CNC1CN(c2cc(NCCOC)ncn2)C1 [Example 54, N-(2-Methoxyethyl)-6-[3-(methylamino)azetidin-1-yl]pyrimidin-4-amine] |
| 161 | CNC1CN(c2cc(NCc3ccccc3)ncn2)C1 [Example 51, N-Benzyl-6-[3-(methylamino)azetidin-1-yl]pyrimidin-4-amine] |
| 40.1 | CNC1CN(c2cc(NC(C)C)ncn2)C1 [Example 46, N-Isopropyl-6-[3-(methylamino)azetidin-1-yl]pyrimidin-4-amine] |
| 420 | CNC1CN(c2cc(NCc3cccc(F)c3)ncn2)C1 [Example 45, (3-Fluoro-benzyl)-[6-(3-methylamino-azetidin-1-yl)-pyrimidin-4-yl]-amine] |
| 11.9 | CNC1CN(c2cc(NC3CC3)nc(N)n2)C1 [Example 72, N^4-Cyclopropyl-6-[3-(methylamino)azetidin-1-yl]pyrimidine-2,4-diamine] |
| 1350 | CN1C[C@@H]2CN(c3cc(NCc4cccc(F)c4)nc(N)n3)C[C@@H]2C1 [Example 92, N^4-(3-Fluorobenzyl)-6-[(3aR*,6aS*)-5-methylhexahydropyrrolo [3,4-c]pyrrol-2(1H)-yl]pyrimidine-2,4-diamine] |
| 255 | CNC1CN(c2cc(NCc3ccc(C#N)cc3)nc(N)n2)C1 [Example 77, 4-[({2-Amino-6-[3-(methyl-amino)azetidin-1-yl]pyrimidin-4-yl}amino)methyl]benzonitrile] |
| 3120 | CC(C)(C)CCNc1cc(N2CC3C(N)C3C2)nc(N)n1 (stereo not drawn) [Example 333, 6-[(1R*,5S*,6s*)-6-Amino-3-azabicyclo[3.1.0]hex-3-yl]-N^4-(3,3-dimethylbutyl)pyrimidine-2,4-diamine] |

The next lines start with the compound.

| Compound | Ki [nM] |
| --- | --- |
| CC(C)CCNc1cc(N[C@@H]2CCNC2)ncn1 [Example 329, N-(3-Methylbutyl)-N′-[(3R)-pyrrolidin-3-yl]pyrimidine-4,6-diamine] | 1420 |
| c1nc(NC[C@@H]2CCCO2)cc(N[C@@H]2CCNC2)n1 [Example 341, N-[(3R)-Pyrrolidin-3-yl]-N′-[(2S)-tetrahydrofuran-2-ylmethyl]pyrimidine-4,6-diamine] | 16300 |
| c1ccc(CCNc2cc(N[C@@H]3CCNC3)ncn2)cc1 [Example 346, N-(2-Phenylethyl)-N′-[(3R)-pyrrolidin-3-yl]pyrimidine4,6-diamine] | 38400 |
| CN1CCN(c2cc(NCCC(F)(F)F)ncn2)CC1 [Example 115, 6-(4-Methylpiperazin-1-yl)-N-(3,3,3-trifluoropropyl)pyrimidin-4-amine] | 494 |
| CN1C[C@@H]2CN(c3cc(NCCC(C)(C)C)nc(N)n3)C[C@@H]2C1 [Example 40, N^4-(3,3-Dimethylbutyl)-6-[(3aR*,6aS*)-5-methylhexahydro-pyrrolo[3,4-c]pyrrol-2(1H)-yl]pyrimidine-2,4-diamine] | 192 |
| CC(C)(C)CNc1cc(N2CCC(N3CCCC3)C2)nc(N)n1 (stereo not drawn) [Example 327, 6-[(3-S)-1,3′-Bipyrrolidin-1′-yl]-N^4-(2,2-dimethylpropyl)pyrimidine-2,4-diamine] | 376 |
| CC(C)(C)CCNc1cc(N2CC[C@H](N3CCCC3)C2)nc(N)n1 [Example 332, 6-[(3′S)-1,3′-Bipyrrolidin-1′-yl]-N^4-(3,3-dimethylbutyl)pyrimidine-2,4-diamine] | 2690 |
| CN[C@@H]1CCN(c2cc(NCC3CC3)ncn2)C1 [Example 15, N-(Cyclopropylmethyl)-6-[(3R)-3-(methylamino)pyrrolidin-1-yl] pyrimidin-4-amine] | 19.2 |
| CNc1cc(N2C[C@H]3CN(C)C[C@H]3C2)nc(N)n1 [Example 35, N^4-Methyl-6-[(3aR*,6aS*)-5-methylhexahydro-pyrrolo[3,4-c]pyrrol-2(1H)-yl]pyrimidine-2,4-diamine] | 662 |
| CNC1CN(c2cc(N3CCCCC3)ncn2)C1 [Example 56, N-Methyl-1-(6-piperidin-1-ylpyrimidin-4-yl)azetidin-3-amine] | 1590 |
| Cc1c(NCC(C)C)ncnc1N1CCN(C)CC1 [Example 116, N-Isobutyl-5-methyl-6-(4-methylpiperazin-1-yl)pyrimidin-4-amine] | 426 |
| Cc1c(NC(C)C)ncnc1N1CCN(C)CC1 [Example 331, N-isoPropyl-5-methyl-6-(4-methylpiperazin-1-yl)pyrimidin-4-amine] | 2670 |
| C[C@@H]1CN(c2cc(NCCC(C)(C)C)nc(N)n2)CCN1C [Example 124, N^4-(3,3-Dimethylbutyl)-6-[(3R)-3,4-dimethylpiperazin-1-yl]pyrimidine-2,4-diamine] | 537 |
| CC(C)CNc1cc(N2C[C@H]3CN(C)C[C@H]3C2)nc(N)n1 [Example 37, N^4-Isobutyl-6-[(3aR*,6aS*)-5-methylhexahydro-pyrrolo[3,4-c]pyrrol-2(1H)-yl]pyrimidine-2,4-diamine] | 181 |
| CN1CCN(c2cc(N(C)CC3CC3)ncn2)CC1 [Example 334, N-(Cyclopropylmethyl)-N-methyl-6-(4-methylpiperazin-1-yl)pyrimidin-4-amine] | 5070 |
| CNC1CN(c2cc(N3CCCC3)ncn2)C1 [Example 336, N-Methyl-1-(6-pyrrolidin-1-ylpyrimidin-4-yl)azetidin-3-amine] | 6330 |
| CN(C)[C@@H]1CCN(c2cc(NCCC(C)(C)C)ncn2)C1 [Example 18, 6-[(3R)-3-(Dimethylamino)pyrrolidin-1-yl]-N-(3,3-dimethylbutyl)pyrimidin-4-amine] | 387 |
| CCNc1cc(N2C[C@H]3CN(C)C[C@H]3C2)ncn1 [Example 117, N-Ethyl-6-[(3aR*,6aS*)-5-methylhexahydropyrrolo[3,4-c]pyrrol-2(1H)-yl]pyrimidin-4-amine] | 1620 |
| CN1CCN(c2cc(N3CCCC3)ncn2)CC1 [Example 114, 4-(4-Methylpiperazin-1-yl)-6-pyrrolidin-1-ylpyrimidine] | 1030 |
| CN[C@H]1CCN(c2cc(NCCC(C)(C)C)ncn2)C1 [Example 17, N-(3,3-Dimethylbutyl)-6-[(3S)-3-(methylamino)pyrrolidin-1-yl]pyrimidin-4-amine] | 483 |

Same assay, conditions: Method 2 (Ki (nM)), H4 binding, method 2; Ki calculated from IC50 (Cheng-Prussoff)

| Compound | Ki [nM] |
| --- | --- |
| Nc1nc(NC2CC2)cc(N2C[C@H]3CCCN[C@H]3C2)n1 (racemic) [Example 31, N^4-Cyclopropyl-6-[(4aR*,7aR*)-octahydro-6H-pyrrolo[3,4-b]pyridin-6-yl] pyrimidine-2,4-diamine] | 21.1 |
| CC(C)(C)CNc1cc(N2CCN3CCCC3C2)nc(N)n1 (stereo not drawn) [Example 141, N^4-(2,2-Dimethylpropyl)-6-(hexahydropyrrolo[1,2-a]pyrazin-2(1H)-yl)pyrimidine-2,4-diamine] | 4.97 |
| CCNc1cc(N2C[C@H]3CCCN[C@H]3C2)nc(N)n1 (racemic) [Example 26, N^4-Ethyl-6-[(4aR*,7aR*)-octahydro-6H-pyrrolo[3,4-b]pyridin-6-yl]pyrimidine-2,4-diamine] | 30 |
| Nc1nc(NCC2CCCC2)cc(N2C[C@H]3CCCN[C@H]3C2)n1 (racemic) [Example 33, N^4-(Cyclopentylmethyl)-6-[(4aR*,7aR*)-octahydro-6H-pyrrolo[3,4-b]pyridin-6-yl] pyrimidine-2,4-diamine] | 84.1 |

Same assay, conditions: at 40 μM

| Method 2, % at 40 μM [% at 40 μM] | Compound |
| --- | --- |
| 53 | CN1CCC(Nc2cc(NCCC(C)(C)C)ncn2)CC1 [Example 343, N-(3,3-Dimethylbutyl)-N′-(1-methylpiperidin-4-yl)pyrimidine-4,6-diamine] |
| 13 | CC(C)(C)CCNc1cc(N2CC[C@H](N3CCCC3)C2)ncn1 [Example 342, 6-[(3′S)-1,3′-Bipyrrolidin-1′-yl]-N-(3,3-dimethylbutyl)pyrimidin-4-amine] |
